Experiments:
[1] = Measurement of a fluorescence spectrum (absorption and fluorescent wavelength, fluorescence intensity); assay type: physicochemical; details: for Absorption wavelength / Fluorescence wavelength / Stokes shift: dissolved in DMSO, concentration 10^-4 M; for Fluorescence intensity relative to Synthetic Example 22: fluorescence intensity of Synthetic Example 22 was 1.0
Procedure: Measurement of a Fluorescence Spectrum
Each of the synthesized fluorescent dyes was dissolved in a solvent by using DMSO to prepare a solution having a concentration of 10^−4 M, so that the measurements of fluorescent wavelength and absorption wavelength were performed.

[2] = Direct solubility of the fluorescent dye in water; assay type: physicochemical
Description: The fluorescent dyes obtained in Synthetic Examples 1 to 21 were each directly soluble in water. […] A stokes shift of 100 nm or more was obtained in all the synthesized fluorescent dyes. An absorption wavelength of 400 to 450 nm was obtained in the 4,7-diphenyl whereas an absorption wavelength of 500 nm or more and a fluorescence wavelength of 600 nm or more were obtained in the 4,7-thienyl. When the fluorescence intensity of Synthetic Example 22 was 1.0, a very high fluorescence intensity as much as 11.2 was obtained in Synthetic Example 1 and a very high fluorescence intensity as much as 6.0 was obtained in Synthetic Example 12.

## O=C(CCCCC[n+]1cccc(/C=C/c2nc(-c3ccccc3)c3nsnc3c2-c2ccccc2)c1)ON1C(=O)CCC1=O [Synthetic Example 1]
[1]
  Absorption wavelength: 411 nm
  Fluorescence wavelength: 531 nm
  Stokes shift: 120 nm
  Fluorescence intensity relative to Synthetic Example 22: 11.2

## COc1ccc(-c2nc(/C=C/c3ccc[n+](CCCCCC(=O)ON4C(=O)CCC4=O)c3)c(-c3ccc(OC)cc3)c3nonc23)cc1 [Synthetic Example 2]
[1]
  Absorption wavelength: 437 nm
  Fluorescence wavelength: 608 nm
  Stokes shift: 171 nm

## Cc1csc(-c2c(-c3ccc[n+](CCC(=O)ON4C(=O)CCC4=O)c3)nc(-c3ccc(C)s3)c3nonc23)c1 [Synthetic Example 10]
[1]
  Absorption wavelength: 531 nm
  Fluorescence wavelength: 650 nm
  Stokes shift: 119 nm

## Cc1csc(-c2c(-c3cc[n+](CCCCCC(=O)ON4C(=O)CCC4=O)cc3)nc(-c3ccc(C)s3)c3nonc23)c1 [Synthetic Example 11, active ester of 4,7-di(methylthienyl)-1,2,5-oxadiazolopyridine-6-(4-pyridinium)]
[1]
  Absorption wavelength: 528 nm
  Fluorescence wavelength: 648 nm
  Stokes shift: 120 nm

## O=C(CCCCC[n+]1cccc(-c2nc(-c3ccccc3)c3nonc3c2-c2ccccc2)c1)ON1C(=O)CCC1=O [Synthetic Example 12]
[1]
  Absorption wavelength: 382 nm
  Fluorescence wavelength: 513 nm
  Stokes shift: 131 nm
  Fluorescence intensity relative to Synthetic Example 22: 6.0

## O=C(CCCCC[n+]1ccc(-c2nc(-c3ccc(-c4ccc5ccccc5c4)s3)c3nonc3c2-c2cc(-c3ccc4ccccc4c3)cs2)cc1)ON1C(=O)CCC1=O [Synthetic Example 16, active ester of 4,7-di[(2-naphthyl)thienyl]-1,2,5-oxadiazolopyridine-6-(4-pyridinium)]
[1]
  Absorption wavelength: 516 nm
  Fluorescence wavelength: 682 nm
  Stokes shift: 166 nm

## O=C(CCCCC[n+]1ccc(/C=C/c2nc(-c3ccc(-c4cccc5ccccc45)s3)c3nonc3c2-c2ccc(-c3cccc4ccccc34)s2)cc1)ON1C(=O)CCC1=O [Synthetic Example 18, active ester of 4,7-di[(1-naphthyl)thienyl]-1,2,5-oxadiazolopyridine-6-(4-vinylpyridinium)]
[1]
  Absorption wavelength: 535 nm
  Fluorescence wavelength: 700 nm
  Stokes shift: 165 nm

## O=C(CCCCC[n+]1ccc(-c2nc(-c3ccc(-c4ccc(-c5ccccc5)cc4)s3)c3nonc3c2-c2cc(-c3ccc(-c4ccccc4)cc3)cs2)cc1)ON1C(=O)CCC1=O.[Br-] [Synthetic Example 20, active ester of 4,7-di[(2-biphenyl)thienyl]-1,2,5-oxadiazolopyridine-6-(4-pyridinium)]
[1]
  Absorption wavelength: 529 nm
  Fluorescence wavelength: 715 nm
  Stokes shift: 186 nm

## active ester of 4,7-di(bromothienyl)-1,2,5-oxadiazolopyridine-6-(4-pyridine) [Synthetic Example 13]
[1]
  Absorption wavelength: 516 nm
  Fluorescence wavelength: 698 nm
  Stokes shift: 182 nm

## active ester of 4,7-di(methylthienyl)-1,2,5-oxadiazolopyridine-6-(3-pyridinium) [Synthetic Example 9]
[1]
  Absorption wavelength: 539 nm
  Fluorescence wavelength: 660 nm
  Stokes shift: 121 nm

## active ester of 4,7-di[(1-naphthyl)thienyl]-1,2,5-oxadiazolopyridine-6-(4-pyridinium) [Synthetic Example 15]
[1]
  Absorption wavelength: 532 nm
  Fluorescence wavelength: 722 nm
  Stokes shift: 190 nm

## active ester of 4,7-di[(2-biphenyl)thienyl]-1,2,5-oxadiazolopyridine-6-(4-vinylpyridinium) [Synthetic Example 21]
[1]
  Absorption wavelength: 404 nm
  Fluorescence wavelength: 527 nm
  Stokes shift: 123 nm

## active ester of 4,7-di[(2-bromo)thienyl]-1,2,5-oxadiazolopyridine-6-(4-vinylpyridinium) [Synthetic Example 17]
[1]
  Absorption wavelength: 509 nm
  Fluorescence wavelength: 688 nm
  Stokes shift: 179 nm

## active ester of 4,7-di[(2-naphthyl)thienyl]-1,2,5-oxadiazolopyridine-6-(4-vinylpyridinium) [Synthetic Example 19]
[1]
  Absorption wavelength: 533 nm
  Fluorescence wavelength: 730 nm
  Stokes shift: 197 nm

## active ester of 4,7-di[(2-phenyl)thienyl]-1,2,5-oxadiazolopyridine-6-(4-pyridinium) [Synthetic Example 14]
[1]
  Absorption wavelength: 500 nm
  Fluorescence wavelength: 710 nm
  Stokes shift: 210 nm

## active ester of 4,7-diphenyl-1,2,5-oxadiazolopyridine ethyl ester [Synthetic Example 22, reference compound]
[2]
  Direct solubility in water: could not be directly dissolved in water
[1]
  Fluorescence intensity relative to Synthetic Example 22: 1.0

From patent US9091692B2, “Fluorescent dye” (SHINICHIRO ISOBE, priority 2011, dated 2015)
